# Biological target: CYP3A4 (Homo sapiens, UniProt P08684)
# Assay: LC-MS/MS of 1-hydroxymidazolam, human liver microsomes
# Assay type: biochemical
# CYP3A4, sequence (P08684 2-503): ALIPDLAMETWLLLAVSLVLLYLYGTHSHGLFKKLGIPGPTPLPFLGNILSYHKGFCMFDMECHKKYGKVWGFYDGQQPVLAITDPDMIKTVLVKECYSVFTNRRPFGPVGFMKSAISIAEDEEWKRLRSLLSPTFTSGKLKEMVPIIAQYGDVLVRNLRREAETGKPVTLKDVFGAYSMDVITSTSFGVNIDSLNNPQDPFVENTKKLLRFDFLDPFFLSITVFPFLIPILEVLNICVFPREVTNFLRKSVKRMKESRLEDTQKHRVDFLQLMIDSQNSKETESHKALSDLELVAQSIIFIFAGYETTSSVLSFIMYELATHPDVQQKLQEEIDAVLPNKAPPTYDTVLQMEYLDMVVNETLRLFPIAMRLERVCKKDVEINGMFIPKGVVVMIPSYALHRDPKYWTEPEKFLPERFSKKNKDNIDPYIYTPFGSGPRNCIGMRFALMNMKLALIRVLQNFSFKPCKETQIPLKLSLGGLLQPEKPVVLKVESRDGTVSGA
structure (smiles),measurement,value
O=c1c(-c2ccc(O)cc2)coc2cc(O)cc(O)c12 [genistein],Liver microsome inhibition genistein (25 μM),19%

# Reference: article PMC3140810 (International Journal of Women's Health, 2011)
